In the NIST ThermoML archive (doi:10.1021/je201009c):

Tests used:
[1] = xn = mol fraction of the nth substance listed; conditions: for surface tension liquid-gas: Capillary rise; for viscosity / mass density: Liquid; for viscosity: Falling or rolling sphere viscometry; for mass density: Vibrating tube method
[2] = refractive index (Na D-line) (dimensionless); xn = mol fraction of the nth substance listed; conditions: Liquid, Standard Abbe refractometry
[3] = refractive index (Na D-line) (dimensionless); conditions: 101.33 kPa, Liquid, Standard Abbe refractometry
[4] = for surface tension liquid-gas: Capillary rise; for viscosity / mass density: Liquid; for viscosity: Falling or rolling sphere viscometry; for mass density: Vibrating tube method

CCO [ethanol] + CC(=O)OCc1ccccc1
[1], x1 = 1
Conditions | surface tension liquid-gas [mN/m]
293.15 K | 22.3
303.15 K | 21.4
313.15 K | 20.6
323.15 K | 19.4

100.8 kPa, x1 = 1
Conditions | mass density, [1] [kg/m3] | refractive index, [2] | viscosity, [1] [mPa·s]
293.15 K | 789.1 | 1.36137 | 1.183
303.15 K | 780.76 | 1.35712 | 0.98
313.15 K | 771.99 | 1.35292 | 0.822
323.15 K | 763.03 | 1.34873 | 0.698

OCc1ccccc1 [benzenemethanol] + CC(=O)OCc1ccccc1
[1], x2 = 0
Conditions | surface tension liquid-gas [mN/m]
293.15 K | 39.2
303.15 K | 38.1
313.15 K | 37.2
323.15 K | 36.3

101 kPa, x2 = 0
Conditions | mass density, [1] [kg/m3] | refractive index, [2] | viscosity, [1] [mPa·s]
293.15 K | 1045.44 | 1.54049 | 6.287
303.15 K | 1037.45 | 1.53635 | 4.579
313.15 K | 1029.61 | 1.53215 | 3.335
323.15 K | 1021.5 | 1.52796 | 2.545

CC(=O)OCc1ccccc1 [benzyl ethanoate]
Conditions | refractive index, 293.15 K | refractive index, 303.15 K | refractive index, 313.15 K | refractive index, 323.15 K | surface tension liquid-gas, 293.15 K [mN/m] | surface tension liquid-gas, 303.15 K [mN/m] | surface tension liquid-gas, 313.15 K [mN/m] | surface tension liquid-gas, 323.15 K [mN/m]
[3] | 1.50245 | 1.49776 | 1.49309 | 1.48834 | – | – | – | –
[4] | – | – | – | – | 37.3 | 35.6 | 34.3 | 33.2

[4]
Conditions | mass density, 293.15 K [kg/m3] | mass density, 303.15 K [kg/m3] | mass density, 313.15 K [kg/m3] | mass density, 323.15 K [kg/m3] | viscosity, 293.15 K [mPa·s] | viscosity, 303.15 K [mPa·s] | viscosity, 313.15 K [mPa·s] | viscosity, 323.15 K [mPa·s]
100.8 kPa | 1055.81 | 1046.74 | 1037.42 | 1027.51 | 2.324 | 1.836 | 1.474 | 1.256
101 kPa | 1055.81 | 1046.74 | 1037.42 | 1027.51 | 2.324 | 1.836 | 1.474 | 1.256

CCO [ethanol]
Conditions | refractive index, 293.15 K | refractive index, 303.15 K | refractive index, 313.15 K | refractive index, 323.15 K | surface tension liquid-gas, 293.15 K [mN/m] | surface tension liquid-gas, 303.15 K [mN/m] | surface tension liquid-gas, 313.15 K [mN/m] | surface tension liquid-gas, 323.15 K [mN/m]
[3] | 1.36137 | 1.35712 | 1.35292 | 1.34873 | – | – | – | –
[4] | – | – | – | – | 22.3 | 21.4 | 20.6 | 19.4

[4], 100.8 kPa
Conditions | mass density [kg/m3] | viscosity [mPa·s]
293.15 K | 789.1 | 1.183
303.15 K | 780.76 | 0.98
313.15 K | 771.99 | 0.822
323.15 K | 763.03 | 0.698

CCO [ethanol] + OCc1ccccc1
[1], x1 = 1
Conditions | surface tension liquid-gas [mN/m]
293.15 K | 22.3
303.15 K | 21.4
313.15 K | 20.6
323.15 K | 19.4

100.8 kPa, x1 = 1
Conditions | mass density, [1] [kg/m3] | refractive index, [2] | viscosity, [1] [mPa·s]
293.15 K | 789.1 | 1.36137 | 1.183
303.15 K | 780.76 | 1.35712 | 0.98
313.15 K | 771.99 | 1.35292 | 0.822
323.15 K | 763.03 | 1.34873 | 0.698

OCc1ccccc1 [benzenemethanol]
Conditions | refractive index, 293.15 K | refractive index, 303.15 K | refractive index, 313.15 K | refractive index, 323.15 K | surface tension liquid-gas, 293.15 K [mN/m] | surface tension liquid-gas, 303.15 K [mN/m] | surface tension liquid-gas, 313.15 K [mN/m] | surface tension liquid-gas, 323.15 K [mN/m]
[3] | 1.54049 | 1.53635 | 1.53215 | 1.52796 | – | – | – | –
[4] | – | – | – | – | 39.2 | 38.1 | 37.2 | 36.3

[4]
Conditions | mass density, 293.15 K [kg/m3] | mass density, 303.15 K [kg/m3] | mass density, 313.15 K [kg/m3] | mass density, 323.15 K [kg/m3] | viscosity, 293.15 K [mPa·s] | viscosity, 303.15 K [mPa·s] | viscosity, 313.15 K [mPa·s] | viscosity, 323.15 K [mPa·s]
100.8 kPa | 1045.44 | 1037.45 | 1029.61 | 1021.5 | 6.287 | 4.579 | 3.335 | 2.545
101 kPa | 1045.44 | 1037.45 | 1029.61 | 1021.5 | 6.287 | 4.579 | 3.335 | 2.545
